Reference: BindingDB's records for doi:10.1016/S0960-894X(96)00274-0 (1996)
pIC50: −log10 of the molar value.

Key:
[1] = Compound was tested for Inhibition of [3H]-DPDPE (0.2 nM) binding to Opioid receptor from bovine striatal Membranes
[2] = Compound was tested for Inhibition of 9 (1 nM) binding to Opioid receptor delta 1 from bovine striatal Membranes

Row | Compound | pIC50 [1] | pIC50 [2]
1 | C=C(Cl)C(=O)N[C@@]12CCC(=O)[C@@H]3Oc4c(O)ccc5c4C31CCN(CC1CC1)C2C5 (stereo partly drawn) [1N-[4-cyclopropylmethyl-10-hydroxy-14-oxo-(13R,17S)-12-oxa-4-azapentacyclo[9.6.1.01,13.05,17.07,18]octadeca-7(18),8,10-trien-17-yl]-2-chloroacrylamide] | 6.30 | 6.75
2 | C=C(Cl)C(=O)N[C@@H]1CCC2C3Cc4ccc(O)c5c4C2(CCN3CC2CC2)[C@H]1O5 (stereo partly drawn) [1N-[4-cyclopropylmethyl-10-hydroxy-(13R,14R)-12-oxa-4-azapentacyclo[9.6.1.01,13.05,17.07,18]octadeca-7(18),8,10-trien-14-yl]-2-chloroacrylamide] | 8.82 | 9.28
3 | C=C(Cl)C(=O)N[C@@]12CCC(=O)[C@@H]3Oc4c(O)ccc5c4C31CCN(C)C2C5 (stereo partly drawn) [1N-[10-hydroxy-4-methyl-14-oxo-(13R,17S)-12-oxa-4-azapentacyclo[9.6.1.01,13.05,17.07,18]octadeca-7(18),8,10-trien-17-yl]-2-chloroacrylamide] | 6.74 | 6.75
4 | C=C(Cl)C(=O)N[C@@H]1CCC2C3Cc4ccc(O)c5c4C2(CCN3C)[C@H]1O5 (stereo partly drawn) [1N-[10-hydroxy-4-methyl-(13R,14R)-12-oxa-4-azapentacyclo[9.6.1.01,13.05,17.07,18]octadeca-7(18),8,10-trien-14-yl]-2-chloroacrylamide] | 7.59 | 7.35
